Data as given in DBAASP.
≈ marks a conversion by molar mass, not a printed value. Each block holds one compound with its values, some of them ahead of it.

Legend:
Test in all cases: ≥ marks a high value that may be exact or a test limit, other limits are often not marked, values filed in µg/mL are converted to µM
[1] = system: Bacillus subtilis CMCC 63501
[2] = system: Enterococcus faecalis ATCC 29212
[3] = system: Escherichia coli ATCC 25922
[4] = system: Pseudomonas aeruginosa ATCC 27853
[5] = system: Salmonella enterica subsp. enterica serovar Pullorum C79-13
[6] = system: Salmonella enterica subsp. enterica serovar Typhimurium C77-31
[7] = system: Staphylococcus aureus ATCC 29213
[8] = system: Staphylococcus epidermidis ATCC 12228
[9] = system: Candida albicans ATCC 64550
[10] = system: Escherichia coli ATCC 8739
[11] = system: Pseudomonas aeruginosa ATCC 9027
[12] = system: Staphylococcus aureus ATCC 6538
[13] = system: Enterobacter cloacae
[14] = system: Escherichia coli 1
[15] = system: Escherichia coli ML-35p
[16] = system: Escherichia coli
[17] = system: Klebsiella aerogenes
[18] = system: Pseudomonas aeruginosa PAO1
[19] = system: Pseudomonas aeruginosa
[20] = system: Staphylococcus aureus ATCC 25923
[21] = system: Staphylococcus aureus
[22] = system: Staphylococcus aureus ATCC 33591
[23] = system: Staphylococcus epidermidis ATCC 35984
[24] = system: Corynebacterium glutamicum ATCC 13032
[25] = system: Escherichia coli HB101
[26] = system: Staphylococcus aureus ATCC 9144
[27] = system: Escherichia coli 078
[28] = system: Escherichia coli K88
[29] = system: Escherichia coli K99
[30] = system: Escherichia coli UB1005
[31] = system: Salmonella enterica subsp. enterica serovar Typhimurium ATCC 14028
[32] = system: Bacillus megaterium
[33] = system: Escherichia coli ML-35
[34] = system: Bacillus subtilis
[35] = system: Candida albicans
[36] = system: Micrococcus luteus
[37] = system: Proteus mirabilis
[38] = system: Saccharomyces cerevisiae
[39] = system: Salmonella typhimurium
[40] = system: Serratia marcescens
[41] = system: Shigella dysenteriae
[42] = system: Staphylococcus epidermidis

Structure (SMILES): NC(=O)[C@@H]1CCCN1C(=O)[C@H](CCCN=C(N)N)NC(=O)[C@H](CS)NC(=O)[C@H](Cc1ccccc1)NC(=O)[C@H](CCCN=C(N)N)NC(=O)[C@H](CCCN=C(N)N)NC(=O)[C@H](CCCN=C(N)N)NC(=O)[C@H](CS)NC(=O)[C@H](CCCN=C(N)N)NC(=O)[C@@H]1CCCN1 [PRCRRRFCRP]
MIC [1]: 16 µM (≈ 21.5 µg/mL) | MIC [2]: > 128 µM | MIC [3]: 16 µM (≈ 21.5 µg/mL) | MIC [4]: > 128 µM | MIC [5]: ≥ 128 µM | MIC [6]: ≥ 128 µM | MIC [7]: > 128 µM | MIC [8]: > 128 µM

Structure (SMILES): CC[C@H](C)[C@H](N)C(=O)NCC(=O)N[C@@H](CCCCN)C(=O)N[C@@H](Cc1ccccc1)C(=O)N[C@@H](CC(C)C)C(=O)N[C@@H](CCCCN)C(=O)N[C@@H](CCCCN)C(=O)N[C@@H](C)C(=O)N[C@@H](CCCCN)C(=O)N[C@@H](CCCCN)C(=O)N[C@@H](Cc1ccccc1)C(=O)NCC(N)=O [IGKFLKKAKKFG]
MIC [4]: 133 µM (≈ 181 µg/mL) | MIC [20]: > 375 µM | MIC [22]: ≥ 375 µM | MIC [23]: ≥ 188 µM

Structure (SMILES): NC(N)=NCCC[C@H](NC(=O)[C@@H](N)CO)C(=O)N[C@@H](Cc1c[nH]c2ccccc12)C(=O)N1CCC[C@H]1C(=O)N[C@@H](CO)C(=O)N1CCC[C@H]1C(=O)NCC(=O)N[C@@H](CCCN=C(N)N)C(=O)N1CCC[C@H]1C(=O)N[C@@H](CCCN=C(N)N)C(=O)N1CCC[C@H]1C(=O)N[C@@H](Cc1ccccc1)C(=O)N1CCC[C@H]1C(=O)NCC(=O)O [SRWPSPGRPRPFPG]
MIC [24]: ≥ 100 µM | MIC [3]: > 100 µM | MIC [25]: ≥ 100 µM | MIC [4]: > 100 µM | MIC [26]: ≥ 100 µM

Structure (SMILES): CC(C)[C@H](NC(=O)[C@H](CCCCN)NC(=O)[C@H](C)NC(=O)[C@@H](NC(=O)[C@@H](NC(=O)[C@H](CCCN=C(N)N)NC(=O)[C@H](CCCN=C(N)N)NC(=O)[C@H](Cc1c[nH]c2ccccc12)NC(=O)[C@H](Cc1c[nH]c2ccccc12)NC(=O)CN)[C@@H](C)O)C(C)C)C(=O)N[C@@H](CCCN=C(N)N)C(=O)N[C@@H](CC(N)=O)C(=O)N[C@@H](C)C(=O)NCC(=O)N[C@@H](CCCN=C(N)N)C(=O)N[C@@H](CCCCN)C(N)=O [GWWRRTVAKVRNAGRK]
MIC [24]: 0.8 µM (≈ 1.55 µg/mL) | MIC [3]: 3.1 µM (≈ 6.01 µg/mL) | MIC [4]: 3.1 µM (≈ 6.01 µg/mL) | MIC [26]: 12.5 µM (≈ 24.3 µg/mL)

Structure (SMILES): CC[C@H](C)[C@H](NC(=O)[C@H](CCCCN)NC(=O)[C@H](CCCCN)NC(=O)[C@H](CC(C)C)NC(=O)[C@H](CCCCN)NC(=O)[C@H](CCC(=O)O)NC(=O)[C@H](CCCCN)NC(=O)[C@@H](NC(=O)[C@H](CCCCN)NC(=O)[C@H](CC(N)=O)NC(=O)[C@H](CCCN=C(N)N)NC(=O)[C@H](C)NC(=O)[C@H](CCCCN)NC(=O)[C@H](CCCN=C(N)N)NC(=O)[C@H](CC(C)C)NC(=O)[C@H](CCCN=C(N)N)NC(=O)[C@H](CCCCN)NC(=O)[C@H](CCCN=C(N)N)NC(=O)[C@H](CC(C)C)NC(=O)CN)[C@@H](C)CC)C(=O)O [GLRKRLRKARNKIKEKLKKI]
MIC [32]: 8 µM (≈ 19.8 µg/mL) | MIC [3]: 4 µM (≈ 9.91 µg/mL) | MIC [33]: 4 µM (≈ 9.91 µg/mL) | MIC [4]: 1 µM (≈ 2.48 µg/mL) | MIC [31]: 16 µM (≈ 39.6 µg/mL) | MIC [20]: 8 µM (≈ 19.8 µg/mL)

Further lines, results first:

MIC [9]: ≥ 100 µM | MIC [10]: 3.1 µM (≈ 5.64 µg/mL) | MIC [11]: 4.6 µM (≈ 8.36 µg/mL) | MIC [12]: 1.7 µM (≈ 3.09 µg/mL)
Structure (SMILES): NCCCC[C@H](NC(=O)[C@H](Cc1c[nH]c2ccccc12)NC(=O)[C@H](Cc1ccccc1)NC(=O)[C@@H](N)Cc1c[nH]c2ccccc12)C(=O)N[C@@H](Cc1c[nH]c2ccccc12)C(=O)N[C@@H](Cc1c[nH]c2ccccc12)C(=O)N[C@@H](CCCN=C(N)N)C(=O)N[C@@H](CCCN=C(N)N)C(=O)N[C@@H](CCCN=C(N)N)C(=O)N[C@@H](CCCN=C(N)N)C(=O)N[C@@H](CCCN=C(N)N)C(N)=O [WFWKWWRRRRR]

MIC [13]: 4.15 µM (≈ 8 µg/mL) | MIC [14]: 2.6 µM (≈ 5 µg/mL) | MIC [3]: 6.75 µM (≈ 13 µg/mL) | MIC [15]: 2.6 µM (≈ 5 µg/mL) | MIC [16]: 6.23 µM (≈ 12 µg/mL) | MIC [17]: 8.82 µM (≈ 17 µg/mL) | MIC [4]: 4.15 µM (≈ 8 µg/mL) | MIC [18]: 3.63 µM (≈ 7 µg/mL) | MIC [19]: 3.63 µM (≈ 7 µg/mL) | MIC [20]: 21.3 µM (≈ 41 µg/mL) | MIC [21]: 3.63 µM (≈ 7 µg/mL)
Structure (SMILES): CC(C)C[C@H](NC(=O)[C@H](CCCCN)NC(=O)[C@H](CCCCN)NC(=O)[C@H](Cc1ccccc1)NC(=O)[C@H](Cc1ccccc1)NC(=O)[C@H](CCCCN)NC(=O)[C@H](CCCCN)NC(=O)[C@@H](N)Cc1ccccc1)C(=O)N[C@@H](CCCCN)C(=O)N[C@@H](CC(N)=O)C(=O)N[C@@H](CO)C(=O)N[C@H](C(=O)N[C@@H](CCCCN)C(=O)N[C@@H](CCCCN)C(=O)N[C@@H](CCCN=C(N)N)C(=O)O)C(C)C [FKKFFKKLKNSVKKR]

MIC [1]: 8 µM (≈ 13 µg/mL) | MIC [2]: 32 µM (≈ 52.1 µg/mL) | MIC [27]: 8 µM (≈ 13 µg/mL) | MIC [3]: 8 µM (≈ 13 µg/mL) | MIC [28]: 2 µM (≈ 3.25 µg/mL) | MIC [29]: 4 µM (≈ 6.51 µg/mL) | MIC [30]: 8 µM (≈ 13 µg/mL) | MIC [5]: 2 µM (≈ 3.25 µg/mL) | MIC [31]: 32 µM (≈ 52.1 µg/mL) | MIC [6]: ≥ 32 µM | MIC [20]: 32 µM (≈ 52.1 µg/mL) | MIC [7]: 32 µM (≈ 52.1 µg/mL) | MIC [8]: 64 µM (≈ 104 µg/mL)
Structure (SMILES): CC[C@H](C)[C@H](NC(=O)[C@H](Cc1c[nH]c2ccccc12)NC(=O)[C@H](CCCCN)NC(=O)[C@H](Cc1c[nH]c2ccccc12)NC(=O)[C@@H](NC(=O)[C@H](CCCCN)NC(=O)CNC(=O)[C@@H](NC(=O)[C@H](CCCCN)NC(=O)[C@H](CCCCN)NC(=O)[C@H](Cc1c[nH]c2ccccc12)NC(=O)[C@@H](N)CCCN=C(N)N)[C@@H](C)CC)C(C)C)C(N)=O [RWKKIGKVWKWI]

MIC [34]: ≥ 41.4 µM | MIC [35]: > 41.4 µM | MIC [16]: 20.7 µM (≈ 50 µg/mL) | MIC [36]: 2.07 µM (≈ 5 µg/mL) | MIC [37]: 20.7 µM (≈ 50 µg/mL) | MIC [19]: 20.7 µM (≈ 50 µg/mL) | MIC [38]: 20.7 µM (≈ 50 µg/mL) | MIC [39]: ≥ 41.4 µM | MIC [40]: ≥ 41.4 µM | MIC [41]: 20.7 µM (≈ 50 µg/mL) | MIC [42]: 31.1 µM (≈ 75 µg/mL)
Structure (SMILES): CC[C@H](C)[C@H](NC(=O)CN)C(=O)N[C@@H](CC(C)C)C(=O)N[C@@H](CC(=O)O)C(=O)N[C@H](C(=O)N[C@@H](CC(C)C)C(=O)N[C@@H](CCCCN)C(=O)N[C@@H](CCC(N)=O)C(=O)N[C@@H](Cc1ccccc1)C(=O)N[C@@H](C)C(=O)N[C@@H](CCCCN)C(=O)NCC(=O)N[C@H](C(=O)NCC(=O)N[C@@H](CCCCN)C(=O)N[C@@H](CC(=O)O)C(=O)N[C@@H](CC(C)C)C(=O)N[C@H](C(=O)N[C@@H](CCCCN)C(=O)NCC(=O)N[C@@H](C)C(=O)N[C@@H](C)C(=O)N[C@@H](CCC(N)=O)C(=O)NCC(=O)O)C(C)C)C(C)C)[C@@H](C)O [GILDTLKQFAKGVGKDLVKGAAQG]
